Data on 17 compounds can be found in patent US10030047B2 (Hoffmann-La Roche Inc., priority 2015, dated 2018).

As a reminder, the MIC is the lowest concentration that inhibits growth of the organism.

Converted amounts (≈) assume the structure as drawn.

In the first test the test system is A. baumannii strain ATCC19606. Kind of test: Minimum inhibitory concentration (MIC) determination, microbroth dilution (CLSI). It is filed as cell-based. The note with it: Acinetobacter baumannii, ATCC19606, 20 h, read-out: ATCC19606 MIC. As for the experimental part: The in vitro antimicrobial activity of the compounds was determined through microbroth minimum inhibitory concentration (MIC) methodology performed according to the Clinical and Laboratory Standard Institute guidelines (CLSI—M07-A9 Jan. 2012. Methods for Dilution Antimicrobial Susceptibility Tests for Bacteria That Grow Aerobically; Approved Standard—Ninth Edition, Clinical and Laboratory Standards Institute, Wayne/PA, US and the CLSI—M100-S24 Jan. 2014. Performance Standards for Antimicrobial Susceptibility Testing; Approved Standard—Fourth Informational Supplement, Clinical and Laboratory Standards Institute, Wayne/PA, US).
The compound stock solution was freshly prepared at 10× the required top concentration for the MIC determination, i.e. at 1280 mg/L, by reconstitution of the dry compound in 50:50 water:DMSO.
Polystyrene non-treated 96 wells microtiter plates were used for preparing panel containing compound serial twofold diluted at two times the final testing concentration (e.g. range from 64 to 0.06 μg/ml) in cation adjusted Mueller Hinton broth medium (CAMHB).
Inoculum was prepared by the “direct colony suspension method”. Colonies of A. baumannii ATCC19606 or clinical isolates were suspended in saline solution and adjusted to 0.5 McFarland, diluted 100 times in CAMHB broth and 50 μl added to each well (final concentration of cells ˜5×10^(5) CFU/ml and Final volume/well of 100 μl). Microtiter plates were sealed and incubated at 35±2° C.
MICs values were read after 20 hours of incubation and recorded as the lowest concentration of the antimicrobial that inhibits more or equal to 80% of growth of the organism as detected by the unaided eye and using a microtiter plate optical density reader (OD 600 nm).
Tables 2, 3, 4 and 5 provide the minimum inhibitory concentration (MIC) in microgram per milliliter of the compounds of present invention obtained against the A. baumannii strain ATCC19606 (Tables 2, 3, 4 and 5).
A general note: Broth dilution looks for growth in wells or tubes with falling amounts of substance.
`CN1C(=O)[C@H](CCCCN)NC(=O)[C@H](CCCN)NCc2cccnc2Sc2c(Cl)ccc(Cl)c2CNC(=O)[C@@H]1Cc1c[nH]c2ccccc12` [Example 38, (11S,14S,17S)-14-(4-Amino-butyl)-11-(3-amino-propyl)-22,25-dichloro-17-(1H-indol-3-ylmethyl)-16-methyl-2-thia-4,10,13,16,19-pentaaza-tricyclo[19.4.0.0*3,8*]pentacosa-1(25),3(8),4,6,21,23-hexaene-12,15,18-trione]: the minimum inhibitory concentration (MIC) turned out to be 0.5 µg/mL (≈ 0.676 µM).

The test is the same for the next values; noted with them: Acinetobacter baumannii; A. baumannii ATCC19606; CAMHB; read after 20 hours; >=80% growth inhibition; read-out: ATCC19606 MIC.
Turning to `Cc1[nH]c2ccccc2c1C[C@H]1C(=O)NCc2ccccc2Sc2ccccc2CN[C@@H](CCCN)C(=O)N[C@@H](CCCCN)C(=O)N1C` [Example 32, (12S,15S,18S)-15-(4-Amino-butyl)-18-(3-amino-propyl)-13-methyl-12-(2-methyl-1H-indol-3-ylmethyl)-2-thia-10,13,16,19-tetraaza-tricyclo[19.4.0.0*3,8*]pentacosa-1(21),3,5,7,22,24-hexaene-11,14,17-trione], the MIC is 2 µg/mL (≈ 2.92 µM).

For `CN1C(=O)[C@H](CCCCN)NC(=O)[C@H](CCCN)NCc2cccnc2Sc2ccc(Cl)cc2CNC(=O)[C@@H]1Cc1c[nH]c2ccccc12` [Example 33, (11S,14S,17S)-14-(4-Amino-butyl)-11-(3-amino-propyl)-23-chloro-17-(1H-indol-3-ylmethyl)-16-methyl-2-thia-4,10,13,16,19-pentaaza-tricyclo[19.4.0.0*3,8*]pentacosa-1(25),3,5,7,21,23-hexaene-12,15,18-trione], the MIC was determined as 1 µg/mL (≈ 1.42 µM). Still for that read-out and setting: as for `CN1C(=O)[C@H](CCCCN)NC(=O)[C@H](CCCN)NCc2cccnc2Sc2cccc(Cl)c2CNC(=O)[C@@H]1Cc1c[nH]c2ccccc12` [Example 34, (11S,14S,17S)-14-(4-Amino-butyl)-11-(3-amino-propyl)-22-chloro-17-(1H-indol-3-ylmethyl)-16-methyl-2-thia-4,10,13,16,19-pentaaza-tricyclo[19.4.0.0*3,8*]pentacosa-1(25),3,5,7,21,23-hexaene-12,15,18-trione], the figure is 16 µg/mL (≈ 22.7 µM); as for `CN1C(=O)[C@H](CCCCN)NC(=O)[C@H](CCCN)NCc2c(F)cccc2Sc2ccccc2CNC(=O)[C@@H]1Cc1c[nH]c2ccccc12` [Example 35, (12S,15S,18S)-15-(4-Amino-butyl)-18-(3-amino-propyl)-22-fluoro-12-(1H-indol-3-ylmethyl)-13-methyl-2-thia-10,13,16,19-tetraaza-tricyclo[19.4.0.0*3,8*]pentacosa-1(21),3,5,7,22,24-hexaene-11,14,17-trione], 8 µg/mL (≈ 11.6 µM). The same measure, in the same setting: in the case of `CN1C(=O)[C@H](CCCCN)NC(=O)[C@H](CCCN)NCc2cccnc2Sc2c(cccc2C(F)(F)F)CNC(=O)[C@@H]1Cc1c[nH]c2ccccc12` [Example 36, (11S,14S,17S)-14-(4-Amino-butyl)-11-(3-amino-propyl)-17-(1H-indol-3-ylmethyl)-16-methyl-25-trifluoromethyl-2-thia-4,10,13,16,19-pentaaza-tricyclo[19.4.0.0*3,8*]pentacosa-1(25),3,5,7,21,23-hexaene-12,15,18-trione] it was 1 µg/mL (≈ 1.35 µM); in that of `CN1C(=O)[C@H](CCCCN)NC(=O)[C@H](CCCN)NCc2cccnc2Sc2ccc(Cl)c(Cl)c2CNC(=O)[C@@H]1Cc1c[nH]c2ccccc12` [Example 37, (11S,14S,17S)-14-(4-Amino-butyl)-11-(3-amino-propyl)-22,23-dichloro-17-(1H-indol-3-ylmethyl)-16-methyl-2-thia-4,10,13,16,19-pentaaza-tricyclo[19.4.0.0*3,8*]pentacosa-1(25),3,5,7,21,23-hexaene-12,15,18-trione], 2 µg/mL (≈ 2.7 µM); in that of `CN1C(=O)[C@H](CCCCN)NC(=O)[C@H](CCCN)NCc2cccnc2Sc2c(Cl)ccc(C(F)(F)F)c2CNC(=O)[C@@H]1Cc1c[nH]c2ccccc12` [Example 39, (11S,14S,17S)-14-(4-Amino-butyl)-11-(3-amino-propyl)-25-chloro-17-(1H-indol-3-ylmethyl)-16-methyl-22-trifluoromethyl-2-thia-4,10,13,16,19-pentaaza-tricyclo[19.4.0.0*3,8*]pentacosa-1(25),3,5,7,21,23-hexaene-12,15,18-trione], 0.5 µg/mL (≈ 0.647 µM).

`CN1C(=O)[C@H](CCCCN)NC(=O)[C@H](CCCN)NCc2cccnc2Sc2c(F)ccc(F)c2CNC(=O)[C@@H]1Cc1c[nH]c2ccccc12` [Example 40, (11S,14S,17S)-14-(4-Amino-butyl)-1-(3-amino-propyl)-22,25-difluoro-17-(1H-indol-3-ylmethyl)-16-methyl-2-thia-4,10,13,16,19-pentaaza-tricyclo[19.4.0.0*3,8*]pentacosa-1(25),3(8),4,6,21,23-hexaene-12,15,18-trione]: the MIC was 0.5 µg/mL (≈ 0.707 µM).

On to `Cc1cc(Cl)c2c(c1)CNC(=O)[C@H](Cc1c[nH]c3ccccc13)N(C)C(=O)[C@H](CCCCN)NC(=O)[C@H](CCCN)NCc1ccccc1S2` [Example 41, (12S,15S,18S)-15-(4-Amino-butyl)-18-(3-amino-propyl)-4-chloro-12-(1H-indol-3-ylmethyl)-6,13-dimethyl-2-thia-10,13,16,19-tetraaza-tricyclo[19.4.0.0*3,8*]pentacosa-1(25),3,5,7,21,23-hexaene-11,14,17-trione], for which the MIC stood at 0.5 µg/mL (≈ 0.696 µM). Consider `CN1C(=O)[C@H](CCCCN)NC(=O)[C@H](CCCN)NCc2ccccc2Sc2c(Cl)cc(Cl)cc2CNC(=O)[C@@H]1Cc1c[nH]c2ccccc12` [Example 42, (12S,15S,18S)-15-(4-Amino-butyl)-18-(3-amino-propyl)-4,6-dichloro-12-(1H-indol-3-ylmethyl)-13-methyl-2-thia-10,13,16,19-tetraaza-tricyclo[19.4.0.0*3,8*]pentacosa-1(25),3,5,7,21,23-hexaene-11,14,17-trione], for which the MIC worked out at 1 µg/mL (≈ 1.35 µM).

For `CCN1C(=O)[C@H](CCCCN)NC(=O)[C@H](CCCN)NCc2ccccc2Sc2ccc(Cl)cc2CNC(=O)[C@@H]1Cc1c[nH]c2ccccc12` [Example 43, (12S,15S,18S)-15-(4-Amino-butyl)-18-(3-amino-propyl)-6-chloro-13-ethyl-12-(1H-indol-3-ylmethyl)-2-thia-10,13,16,19-tetraaza-tricyclo[19.4.0.0*3,8*]pentacosa-1(21),3,5,7,22,24-hexaene-11,14,17-trione], the MIC was 1 µg/mL (≈ 1.39 µM). Still for that read-out and setting: as for `CCN1C(=O)[C@H](CCCCN)NC(=O)[C@H](CCCN)NCc2ccccc2Sc2ccc(OC)cc2CNC(=O)[C@@H]1Cc1c[nH]c2ccccc12` [Example 44, (12S,15S,18S)-15-(4-Amino-butyl)-18-(3-amino-propyl)-13-ethyl-12-(1H-indol-3-ylmethyl)-6-methoxy-2-thia-10,13,16,19-tetraaza-tricyclo[19.4.0.0*3,8*]pentacosa-1(21),3,5,7,22,24-hexaene-11,14,17-trione], the figure is 0.5 µg/mL (≈ 0.7 µM).

As to `CCN1C(=O)[C@H](CCCCN)NC(=O)[C@H](CCCN)NCc2ccccc2Sc2c(Cl)cccc2CNC(=O)[C@@H]1Cc1c[nH]c2ccccc12` [Example 45, (12S,15S,18S)-15-(4-Amino-butyl)-18-(3-amino-propyl)-4-chloro-13-ethyl-12-(1H-indol-3-ylmethyl)-2-thia-10,13,16,19-tetraaza-tricyclo[19.4.0.0*3,8*]pentacosa-1(21),3,5,7,22,24-hexaene-11,14,17-trione], the minimal inhibitory concentration (MIC) is 0.5 µg/mL (≈ 0.696 µM). The same measure, in the same setting: as for `CCN1C(=O)[C@H](CCCCN)NC(=O)[C@H](CCCN)NCc2ccccc2Sc2c(C)cccc2CNC(=O)[C@@H]1Cc1c[nH]c2ccccc12` [Example 46, (12S,15S,18S)-15-(4-Amino-butyl)-18-(3-amino-propyl)-13-ethyl-12-(1H-indol-3-ylmethyl)-4-methyl-2-thia-10,13,16,19-tetraaza-tricyclo[19.4.0.0*3,8*]pentacosa-1(21),3,5,7,22,24-hexaene-11,14,17-trione], the figure is 1 µg/mL (≈ 1.43 µM); as for `CN1C(=O)[C@H](CCCCN)NC(=O)[C@H](CCCN)NCc2ccccc2Sc2ccc(F)cc2CNC(=O)[C@@H]1Cc1c[nH]c2ccccc12` [Example 47, (12S,15S,18S)-15-(4-Amino-butyl)-18-(3-amino-propyl)-6-fluoro-12-(1H-indol-3-ylmethyl)-13-methyl-2-thia-10,13,16,19-tetraaza-tricyclo[19.4.0.0*3,8*]pentacosa-1(25),3,5,7,21,23-hexaene-11,14,17-trione], 4 µg/mL (≈ 5.81 µM); as for `CNCCCC[C@@H]1NCc2ccccc2Sc2c(Cl)cccc2CNC(=O)[C@H](Cc2c[nH]c3ccccc23)N(C)C(=O)[C@H](CCCCN)NC1=O` [Example 48, (12S,15S,18S)-15-(4-Amino-butyl)-4-chloro-12-(1H-indol-3-ylmethyl)-13-methyl-18-(4-methylamino-butyl)-2-thia-10,13,16,19-tetraaza-tricyclo[19.4.0.0*3,8*]pentacosa-1(21),3,5,7,22,24-hexaene-11,14,17-trione], 2 µg/mL (≈ 2.73 µM).
